Values of other authors, collected in patent US20160151380A1, “THERAPIES FOR DISEASES CAUSED BY ARTHROPOD-BORNE PARASITES” (THE REGENTS OF THE UNIVERSITY OF CALIFORNIA, priority 2013, published 2016).

Target: MAPK14 p38 (Homo sapiens, UniProt Q16539)
Conditions: cited from earlier work

Chain of MAPK14 p38 (Q16539 whole entry): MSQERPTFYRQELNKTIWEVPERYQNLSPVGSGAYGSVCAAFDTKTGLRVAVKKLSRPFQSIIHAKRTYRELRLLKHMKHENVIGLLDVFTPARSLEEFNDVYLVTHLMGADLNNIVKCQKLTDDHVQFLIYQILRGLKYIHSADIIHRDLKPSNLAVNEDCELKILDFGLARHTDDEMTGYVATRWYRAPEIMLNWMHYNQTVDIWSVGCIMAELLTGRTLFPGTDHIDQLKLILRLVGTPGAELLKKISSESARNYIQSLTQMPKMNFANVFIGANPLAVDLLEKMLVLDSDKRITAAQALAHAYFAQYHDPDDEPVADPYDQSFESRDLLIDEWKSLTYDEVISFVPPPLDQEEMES

| Compound | IC50 | Ki | Kd |
| --- | --- | --- | --- |
| Cc1ccc(C(=O)Nc2cccc(C(F)(F)F)c2)cc1-c1ccc2nc(N)ncc2c1 [2ofv] | 6 nM | – | – |
| Cc1cccc(-c2nn(C(=S)Nc3ccccc3)cc2-c2ccnc3ccccc23)n1 [A-83-01] | 100 nM | – | – |
| COc1cc2ncnc(Nc3cccc(Cl)c3)c2cc1OC [AG1478] | 560 nM | – | – |
| CC1=C2N=C(C=C3NC(=Cc4[nH]c(c(CCC(=O)O)c4CC(=O)O)Cc4[nH]c1c(CC(=O)O)c4CCC(=O)O)C(CCC(=O)O)C3(C)CC(=O)O)C(CCC(=O)O)C2(C)CC(=O)O (stereo not drawn) [BX517] | > 900 nM | – | – |
| CCNc1nnc2ccc(-c3ocnc3-c3ccc(F)cc3)cn12 [CHEMBL213451] | 7.6 nM | – | – |
| CC(C)c1nnc2ccc(-c3ocnc3-c3ccc(F)cc3Cl)cn12 [CHEMBL215652] | 2.5 nM | – | – |
| Cc1ccc(C(=O)Nc2ccon2)cc1Nc1ncnc(NC2CCCC2)c1C#N [CHEMBL383172] | – | 1.6 nM | – |
| Cc1ccc(-n2nc(C(C)(C)C)cc2NC(=O)Nc2cccc3ccccc23)cc1 [CHEMBL420047] | – | – | 1 nM |
| Cc1ccc(NC(=O)c2cccc(N3CCCCC3)c2)cc1-c1ccc(C(=O)NCC2CC2)cc1 [CHEMBL1964275] | – | – | < 10 nM |
| NC(N)=NC(=O)Cc1c(Cl)cccc1Cl [Kinome_3519] | – | 0.2 nM | – |
| c1ccc(-c2[nH]ncc2-c2ccnc3ccccc23)nc1 [LY364947] | 740 nM | – | – |
| CNC(=O)c1cc(Oc2ccc(NC(=O)Nc3ccc(Cl)c(C(F)(F)F)c3)c(F)c2)ccn1 [Regorafenib] | < 100 nM | – | – |
| Cc1cc(F)ccc1-c1nc(NC(CO)CO)nc2c1ccc(=O)n2-c1c(F)cccc1F [SB681323] | < 100 nM | – | – |
| Oc1cccc2cccnc12 [SPDD01923] | 0.11 nM | – | – |
| CN(C)c1ccc(C(=N)c2ccc(N(C)C)cc2)cc1 [SureCN3936664] | 5 nM | – | – |
| CCCCCCCCCCCCCC(=NO)c1cc(OC)ccc1O [SureCN4219451] | 1.8 nM | – | – |
| CCC(C)C(C(=O)O)N1C(=O)C(=Cc2c(F)cccc2Cl)SC1=S (stereo not drawn) [SureCN4762364] | 3.2 nM | – | – |
| O=C(COC(=O)C1COc2ccccc2O1)Nc1cc(C(F)(F)F)ccc1N1CCOCC1 (stereo not drawn) [SureCN4875304] | 540 nM | – | – |
| COc1ccc2c(Oc3ccc(NC(=O)c4c(C)n(CC(C)(C)O)n(-c5ccccc5)c4=O)nc3)ccnc2c1 [SureCN5495613] | 9 nM | – | – |
| Cc1ccc(NC(=O)c2cccc(N(C)C)c2)cc1NC(=O)c1ccc(O)cc1 [ZM336372] | 180 nM | – | – |

Target: JNK3 (Homo sapiens, UniProt P53779)
Sequence (P53779 whole entry, species assumed): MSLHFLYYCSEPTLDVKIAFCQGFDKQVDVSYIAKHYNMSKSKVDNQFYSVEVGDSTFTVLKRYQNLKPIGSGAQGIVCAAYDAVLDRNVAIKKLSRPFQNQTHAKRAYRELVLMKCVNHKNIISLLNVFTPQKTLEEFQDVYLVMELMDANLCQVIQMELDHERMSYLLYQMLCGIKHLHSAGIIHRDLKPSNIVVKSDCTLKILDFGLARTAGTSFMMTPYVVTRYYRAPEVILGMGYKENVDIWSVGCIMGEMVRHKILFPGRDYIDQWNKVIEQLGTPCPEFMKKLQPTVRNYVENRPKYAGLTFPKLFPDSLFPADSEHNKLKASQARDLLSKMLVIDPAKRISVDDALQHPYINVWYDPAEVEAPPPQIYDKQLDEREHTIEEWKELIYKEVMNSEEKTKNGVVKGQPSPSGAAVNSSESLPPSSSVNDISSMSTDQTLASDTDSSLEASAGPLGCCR
Conditions: cited from earlier work

| Compound | IC50 | Kd | Ki |
| --- | --- | --- | --- |
| Cc1n[nH]c2ccc(-c3cncc(OC[C@@H](N)Cc4c[nH]c5ccccc45)c3)cc12 [A 443654] | > 900 nM | – | – |
| COc1cc(N2CCOCC2)ccc1Nc1ncc(F)c(Nc2ccccc2NS(C)(=O)=O)n1 [CZC-25146] | < 600 nM | – | – |
| O=C(O)c1ccc(-c2c[nH]c3ncc(-c4ccccc4)cc23)cc1C1CCCC1 [GSK650394A] | > 600 nM | – | – |
| Cn1c2ccccc2c2c3c(c4c5ccccc5n(CCC#N)c4c21)CNC3=O [Go6976, 5,6,7,13-Tetrahydro-13-methyl-5-oxo-12H-indolo[2,3-a]pyrrolo[3,4-c]carbazole-12-propa-nenitrile] | > 300 nM | – | – |
| CCS(=O)(=O)Nc1ccc2c(c1)/C(=C(/Nc1ccc(CN3CCCCC3)cc1)c1ccccc1)C(=O)N2 [Hesperadin] | – | < 10 nM | – |
| CCCC(=O)NC1=NC2C(N=CN2C2OC3OP(=O)(O)OC3C2OC(=O)CCC)C(=O)N1 (stereo not drawn) [Kinome_3027] | – | – | 18 nM |
| O=C1c2ccccc2-c2nc3nnnn3nc21 [PDK1/Akt/Flt Inhibitor] | 500 nM | – | – |
| CN(C)C[C@@H]1CCn2cc(c3ccccc32)C2=C(C(=O)NC2=O)c2cn(c3ccccc23)CCO1 [Ruboxistaurin] | > 900 nM | – | – |
| CN1CCC(CNc2ccc3ncc(-c4cccc(OC(F)(F)F)c4)n3n2)CC1 [SGI-1776] | > 1000 nM | – | – |
| O=C(O)c1ccc2c(c1)nc(Nc1cccc(Cl)c1)c1ccncc12 [Silmitasertib] | > 1000 nM | – | – |
| O=C1NCc2c1c1c3ccccc3[nH]c1c1[nH]c3ccccc3c21 [Staurosporine aglycone] | < 100 nM | – | – |
| COc1ccc(-c2cc3nccn3c(Nc3ncccc3C(N)=O)n2)cc1OC [Syk Inhibitor IV] | < 400 nM | – | – |

Target: JNK1 (Homo sapiens, UniProt P45983)
Sequence (P45983 whole entry, species assumed): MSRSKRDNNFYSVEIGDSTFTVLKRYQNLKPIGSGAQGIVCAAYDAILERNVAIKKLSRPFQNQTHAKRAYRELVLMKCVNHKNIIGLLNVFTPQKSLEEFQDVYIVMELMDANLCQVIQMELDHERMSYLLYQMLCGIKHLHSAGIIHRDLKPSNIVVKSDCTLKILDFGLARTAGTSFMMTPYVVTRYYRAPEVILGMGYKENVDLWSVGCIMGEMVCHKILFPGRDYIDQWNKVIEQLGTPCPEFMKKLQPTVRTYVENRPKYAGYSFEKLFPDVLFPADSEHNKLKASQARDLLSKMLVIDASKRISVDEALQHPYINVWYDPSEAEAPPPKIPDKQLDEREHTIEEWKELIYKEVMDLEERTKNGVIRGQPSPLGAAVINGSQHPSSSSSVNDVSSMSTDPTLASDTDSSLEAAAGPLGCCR
Conditions: cited from earlier work

| Compound | IC50 | Kd | Ki |
| --- | --- | --- | --- |
| Cc1n[nH]c2ccc(-c3cncc(OC[C@@H](N)Cc4c[nH]c5ccccc45)c3)cc12 [A 443654] | > 900 nM | – | – |
| N#CC(c1ccnc(NCCc2cccnc2)n1)c1nc2ccccc2s1 (stereo not drawn) [AS601245] | 150 nM | – | – |
| CC1=C2N=C(C=C3NC(=Cc4[nH]c(c(CCC(=O)O)c4CC(=O)O)Cc4[nH]c1c(CC(=O)O)c4CCC(=O)O)C(CCC(=O)O)C3(C)CC(=O)O)C(CCC(=O)O)C2(C)CC(=O)O (stereo not drawn) [BX517] | > 900 nM | – | – |
| CCS(=O)(=O)N1CC(CC#N)(n2cc(-c3ncnc4[nH]ccc34)cn2)C1 [Baricitinib] | > 1000 nM | – | – |
| N#C/C(=C1/Nc2ccccc2S1)c1ccnc(NCCc2cccnc2)n1 [CHEMBL1788116] | 150 nM | – | – |
| COCCOc1ccc2c(c1)ncn2-c1ccc2cccc(N3CCC(N)CC3)c2n1 [CP673451] | > 1000 nM | – | – |
| COc1cc(N2CCOCC2)ccc1Nc1ncc(F)c(Nc2ccccc2NS(C)(=O)=O)n1 [CZC-25146] | < 600 nM | – | – |
| CCS(=O)(=O)Nc1ccc2c(c1)/C(=C(/Nc1ccc(CN3CCCCC3)cc1)c1ccccc1)C(=O)N2 [Hesperadin] | – | < 10 nM | – |
| NC(=O)Nc1sc(-c2ccc(F)cc2)cc1C(N)=O [IKK-2 Inhibitor IV] | – | < 1250 nM | – |
| O=C(c1ccc(Nc2nccc(-c3cc4ccccc4s3)n2)cc1)N1CCC(N2CCCC2)CC1 [K00596a] | 100 nM | – | – |
| CCCCCCOC(=O)[C@]1(O)C[C@@H]2O[C@@]1(C)n1c3ccccc3c3c4c(c5c6ccccc6n2c5c31)C(=O)NC4 [KT5720] | < 800 nM | – | – |
| BrCBr [Kinome_3024] | – | – | 3 nM |
| CCCC(=O)NC1=NC2C(N=CN2C2OC3OP(=O)(O)OC3C2OC(=O)CCC)C(=O)N1 (stereo not drawn) [Kinome_3027] | – | – | 1 nM |
| CCCC(=O)NC1=NC2C(N=CN2C2OC3OP(=O)(O)OC3C2OC(=O)CCC)C(=O)N1 (stereo not drawn) [Kinome_3028] | – | – | 3 nM |
| CCN(CC)C(=O)c1ccc(Nc2nc(OCC3CCCCC3)c3[nH]cnc3n2)cc1 [NU6140] | 500 nM | – | – |
| CC(C)(C)n1nc(Cc2cccc3ccccc23)c2c(N)ncnc21 [PP1 Analog II; 1NM-PP1] | 140 nM | – | – |
| O=C(O)c1ccc2c(c1)nc(Nc1cccc(Cl)c1)c1ccncc12 [Silmitasertib] | > 1000 nM | – | – |
| O=C1NCc2c1c1c3ccccc3[nH]c1c1[nH]c3ccccc3c21 [Staurosporine aglycone] | < 100 nM | – | – |
| CN1CC=C(c2c[nH]c3ccc(-c4cccs4)cc23)CC1 [SureCN10063060] | – | – | > 1000 nM |

Target: T1, PKCepsilon (Homo sapiens, UniProt Q02156)
T1 sequence (Q02156 1-737): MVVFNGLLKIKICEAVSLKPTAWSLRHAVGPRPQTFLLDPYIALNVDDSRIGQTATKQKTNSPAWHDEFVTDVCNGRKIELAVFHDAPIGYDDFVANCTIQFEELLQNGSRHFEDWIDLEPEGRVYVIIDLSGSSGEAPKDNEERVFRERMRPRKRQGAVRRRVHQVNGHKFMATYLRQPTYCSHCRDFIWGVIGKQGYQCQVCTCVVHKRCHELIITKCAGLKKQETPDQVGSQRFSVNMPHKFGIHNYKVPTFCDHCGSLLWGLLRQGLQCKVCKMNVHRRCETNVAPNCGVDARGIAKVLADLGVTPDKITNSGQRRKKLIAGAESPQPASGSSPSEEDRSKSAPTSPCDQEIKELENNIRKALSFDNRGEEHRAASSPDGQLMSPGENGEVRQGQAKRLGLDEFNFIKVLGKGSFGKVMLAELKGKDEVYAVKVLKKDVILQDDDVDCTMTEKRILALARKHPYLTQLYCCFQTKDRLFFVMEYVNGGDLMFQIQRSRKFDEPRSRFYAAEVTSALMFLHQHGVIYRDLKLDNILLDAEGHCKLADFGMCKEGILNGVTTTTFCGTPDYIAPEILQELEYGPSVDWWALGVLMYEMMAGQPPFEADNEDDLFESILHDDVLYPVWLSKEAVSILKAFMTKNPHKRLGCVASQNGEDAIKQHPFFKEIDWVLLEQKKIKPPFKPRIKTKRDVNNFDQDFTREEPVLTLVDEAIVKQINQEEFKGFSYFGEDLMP
Conditions: PKCepsilon; cited from earlier work

| Compound | IC50 | Kd |
| --- | --- | --- |
| O=C1NC(=O)c2c1c1c3ccccc3[nH]c1c1[nH]c3ccccc3c21 [Arcyriaflavin A] | 310 nM | – |
| CC(C)(C)c1nc2c3cc[nH]c(=O)c3c3cc(F)ccc3c2[nH]1 [BCP9000906] | 500 nM | – |
| COc1cccc(Nc2ncnn3ccc(CN4CC[C@@H](N)[C@H](O)C4)c23)c1 [BMS-690514] | – | < 400 nM |
| O=C1NC(=O)C(c2c[nH]c3ccccc23)=C1c1c[nH]c2ccccc12 [Bisindolylmaleimide IV, 3,4-bis(1H-indol-3-yl)pyrrole-2,5-dione] | 190 nM | – |
| CN(C)CCCn1cc(C2=C(c3c[nH]c4ccccc34)C(=O)NC2=O)c2ccccc21 [Bisindolylmaleimide I] | < 25 nM | – |
| CCN1CCOCCn2cc(c3ccccc32)C2=C(C(=O)NC2=O)c2cn(c3ccccc23)CCOCC1 [CHEMBL103055] | 75 nM | – |
| O=C(OC1CCCC1Cc1ccc(O)cc1)c1cc(O)c(C(=O)c2c(O)cccc2C(=O)O)c(O)c1 (stereo not drawn) [CHEMBL295806] | 120 nM | – |
| N=C(N)SCCCn1c(-c2cc3ccccc3s2)c(C2=CC(=O)NC2=O)c2ccccc21 [CHEMBL350335] | 10 nM | – |
| Cc1c(Nc2c(C#N)cncc2/C=C/CCN2CCC[C@@H](N)C2)ccc2[nH]ccc12 [CHEMBL606245] | 14 nM | – |
| COc1ccc2c(c1)c(C1=C(c3c[nH]c4ccccc34)C(=O)NC1=O)cn2CCCN(C)C [Go6983, 3-[1-[3-(dimethylamino)propyl]-5-methoxyindol-3-yl]-4-(1H-indol-3-yl)pyrrole-2,5-dione] | > 150 nM | – |
| Cc1cncc2cccc(S(=O)(=O)N3CCCN(C(=O)CN)C[C@@H]3C)c12 [H-1152; Glycyl] | 500 nM | – |
| C#Cc1cccc(Nc2ncnc3cc4c(cc23)OCCOCCOCCO4)c1 [Icotinib] | > 1000 nM | – |
| O=C1NC(=O)C(c2cn(CCCn3ccnc3)c3ccccc23)=C1Nc1ccccc1 [PKCb Inhibitor, 3-anilino-4-[1-(3-imidazol-1-ylpropyl)indol-3-yl]pyrrole-2,5-dione] | > 50 nM | – |
| O=C1Nc2ccc3ncsc3c2/C1=C/c1cnc[nH]1 [PKR Inhibitor] | > 150 nM | – |
| Nc1ncnc2c1c(-c1cnc3[nH]ccc3c1)nn2C1CCCC1 [PP121] | < 750 nM | – |
| Cn1cc(C2=C(c3cn(CCCSC(=N)N)c4ccccc34)C(=O)NC2=O)c2ccccc21 [Ro-31-8220, methanesulfonic acid; 3-[3-[4-(1-methylindol-3-yl)-2,5-dioxopyrrol-3-yl]indol-1-yl]propyl carbamimidothioate] | 10 nM | – |
| O=C1NC(=O)c2c1c1c3ccccc3n3c1c1c2c2ccccc2n1C1CCC3O1 [SB218078] | > 150 nM | – |
| C[C@@H](OC(=O)c1ccc2c(c1)OCCO2)C(=O)Nc1ccc(Cl)cc1Cl [SureCN2579964] | < 750 nM | – |
| CCc1cccc(OCCOCCN2CC(C)OC(C)C2)c1 (stereo not drawn) [SureCN2934634] | 1.6 nM | – |
| CC1CCCN(CCOCCOc2ccc(Cl)cc2C(C)(C)C)C1 (stereo not drawn) [SureCN2934911] | 36 nM | – |
| CCOC(=O)C(NC(=O)CCC(=O)OCC(=O)C1(O)CCC2C3CCC4=CC(=O)CCC4(C)C3C(O)CC21C)C(O)c1ccccc1 (stereo not drawn) [SureCN3774124] | 330 nM | – |
| COc1c(Br)cc(Br)cc1/C=N\Nc1nc(NCc2ccccc2)nc(N2CCOCC2)n1 [SureCN5757856] | 140 nM | – |
| Cdk1/2 Inhibitor III | > 50 nM | – |

Same assay, conditions: cited from earlier work

| Compound | Ki |
| --- | --- |
| CC(C)[C@H]1C(=O)N[C@H](CO)Cc2c[nH]c3cccc(c23)N1C [Indolactam V] | 7.7 nM |
